Patent EP0635494A1, “2-(Imidazol-1-yl)2-benzylethylidene-aminooxyalkyl-hydroxamic acid derivatives” (PHARMACIA S.p.A., priority 1993, dated 1995)

Legend:
[1] = molecular target: T1, TxA₂ receptor (Homo sapiens, UniProt P21731); test: [³H]-SQ 29,548 binding displacement in washed human platelets (TxA₂ antagonism); conditions: result in words, compared with Sulotroban (BM 13177)
T1 construct: endogenous in cells; host or cells: washed human platelets from healthy volunteers
T1 sequence (P21731 1-343): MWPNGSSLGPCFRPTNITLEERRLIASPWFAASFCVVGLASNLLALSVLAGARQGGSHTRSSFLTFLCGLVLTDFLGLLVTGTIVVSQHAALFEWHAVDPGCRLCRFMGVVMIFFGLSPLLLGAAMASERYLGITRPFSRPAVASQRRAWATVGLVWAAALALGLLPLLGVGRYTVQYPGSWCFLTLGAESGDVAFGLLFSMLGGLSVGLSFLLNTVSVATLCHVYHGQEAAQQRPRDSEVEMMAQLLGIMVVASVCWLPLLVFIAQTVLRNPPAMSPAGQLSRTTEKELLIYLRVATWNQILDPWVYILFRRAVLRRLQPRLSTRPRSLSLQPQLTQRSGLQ
Experimental: The experiments were carried out as follows: Blood from healthy volunteers of both sexes who had not taken any medication for at least 10 days was collected into one-tenth volume of acid citrate dextrose containing indomethacin (28 µM). Platelet rich plasma (PRP), obtained by centrifugation of the blood at 200 x g for 20 min, was washed twice (1000 x g for 10 min). The platelets were then resuspended in Tyrode-Hepes buffer (pH 7.4) to a final concentration of 5-10x10⁻⁸ cells/ml and incubated for 0-60 min at 25°C with [³H]-SQ 29,548 (5 nM). For displacement experiments various concentrations (10⁻⁹ -10⁻⁴M) of competing ligands were added and incubated for 30 min at 25°C.
Non-specific binding was determined in the presence of 50 µM U46619 and was approximately 5% of total binding of [³H]-SQ 29,548. After incubation, 4 ml of ice-cold TRIS-HCl buffer (10 mM, pH 7.4) was added to each tube and the reaction mixture was immediately filtered by suction through a Whatman GE/C glass filter disc which was washed 2 times with ice-cold TRIS-HCl (4 ml) and counted for radioactivity by a Packard-β-counter.
The binding data were analyzed by computerized non-linear curve fitting using the Ligand program and expressed as IC₅₀.

[2] = molecular target: T2, TxA₂ Synthase (Rattus norvegicus, UniProt P49430); test: In vitro effects on TxB₂ production in rat whole blood during clotting (TxA₂ synthesis, RIA); format: cell-based; conditions: result in words, compared with reference compound Dazoxiben
T2 construct: Blood was withdrawn from the abdominal aorta of the animals under light ether anesthesia; from tissue; host or cells: rat whole blood (clotting, serum TxB₂ by RIA)
T2 sequence (P49430 1-533): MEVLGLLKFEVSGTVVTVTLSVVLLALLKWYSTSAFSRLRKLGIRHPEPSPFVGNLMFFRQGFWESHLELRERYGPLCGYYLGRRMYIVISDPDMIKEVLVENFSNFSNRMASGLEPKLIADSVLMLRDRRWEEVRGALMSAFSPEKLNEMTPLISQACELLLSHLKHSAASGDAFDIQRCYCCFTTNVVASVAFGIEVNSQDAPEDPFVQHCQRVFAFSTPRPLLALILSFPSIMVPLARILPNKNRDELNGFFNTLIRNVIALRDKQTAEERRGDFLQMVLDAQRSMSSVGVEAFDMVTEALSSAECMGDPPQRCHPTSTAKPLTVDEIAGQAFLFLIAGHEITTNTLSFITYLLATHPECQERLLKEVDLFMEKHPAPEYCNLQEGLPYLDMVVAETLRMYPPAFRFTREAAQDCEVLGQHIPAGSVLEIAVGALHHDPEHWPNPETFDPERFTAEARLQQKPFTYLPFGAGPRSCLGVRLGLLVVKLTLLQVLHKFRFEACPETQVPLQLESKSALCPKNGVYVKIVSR
Experimental: The compounds of formula (I) were for example tested for their ability to inhibit TxA₂ Synthase activity (as reflected by TxB₂ generated in whole blood during clotting or in isolated glomeruli) in vitro in the rat. The in vitro experiments were carried out as follows: The effect of the compounds on TxA₂ synthesis was evaluated in serum.
Blood was withdrawn from the abdominal aorta of the animals under light ether anesthesia.
Samples were then allowed to clot for 1 h at 37°C, centrifuged at 3000 rpm for 10 min, serum collected and stored at -20°C until assayed. TxB₂ levels were determined by RIA according to previously described procedures [Patrono et al. - Thromb.

[3] = molecular target: T2, TxA₂ Synthase; conditions: statement on the known compound, no data shown; cited from earlier work

| Compound | affinity for the receptor [1] | inhibitory activity on TxA₂ synthesis [2] | TxA₂ synthase inhibitory activity [3] |
| --- | --- | --- | --- |
| Cc1ccc(CC(/C(=N/OCCCCC(=O)O)C2CCCCC2)n2ccnc2)cc1 (racemic) [FCE 27818, (±)-(E)-5-[2-(4-methylbenzyl)-2-(imidazol-1-yl)-1-cyclohexylethylidene]aminooxypentanoic acid] | good affinity for the receptor which is better than that shown by the known compound Sulotroban (BM 13177) | marked inhibitory activity on TxA₂ synthesis significantly more potent than that of reference compound Dazoxiben | – |
| O=C(O)COc1ccc(CCNS(=O)(=O)c2ccccc2)cc1 [BM 13177, Sulotroban] | – | – | devoid of TxA₂ synthase inhibitory activity |
| (±)-(E)-5-[2-benzyl-2-(imidazol-1-yl)-1-cyclohexylethylidene]-aminooxybutanohydroxamic acid [FCE 27790] | good affinity for the receptor which is better than that shown by the known compound Sulotroban (BM 13177) | marked inhibitory activity on TxA₂ synthesis significantly more potent than that of reference compound Dazoxiben | – |
